Measurements reported in ChEMBL document CHEMBL1145216, “N-hydroxy-2-(naphthalene-2-ylsulfanyl)-acetamide, a novel hydroxamic acid-based inhibitor of aminopeptidase N and its anti-angiogenic activity” (Bioorg Med Chem Lett, 2005).

Experiments:
[1] = biological target: T1, Matrix metalloproteinase-14 (Homo sapiens, UniProt P50281); experiment: Inhibitory concentration against matrix metalloprotease-14 in Escherichia coli was determined; NA:Not active
[2] = biological target: 72 kDa type IV collagenase (Homo sapiens, UniProt P08253); experiment: Inhibition of human matrix metalloprotease-2 expressed in Sf9 insect cells; NA:Not active
Aminopeptidase N [3] = biological target: T2, Aminopeptidase N (Homo sapiens, UniProt P15144); experiment: Inhibitory concentration against aminopeptidase N
[4] = biological target: T3, Matrix metalloproteinase-9 (Homo sapiens, UniProt P14780); experiment: Inhibition of human matrix metalloprotease-9 expressed in Sf9 insect cells; NA:Not active
Aminopeptidase N [5] = biological target: T2, Aminopeptidase N; experiment: Binding affinity towards aminopeptidase N
[6] = biological target: T1, Matrix metalloproteinase-14; experiment: Inhibition of human matrix metalloprotease-14 expressed in Escherichia coli
[7] = biological target: T3, Matrix metalloproteinase-9; experiment: Inhibition of human matrix metalloprotease-9 expressed in Sf9 insect cells

T3 sequence (P14780 whole entry): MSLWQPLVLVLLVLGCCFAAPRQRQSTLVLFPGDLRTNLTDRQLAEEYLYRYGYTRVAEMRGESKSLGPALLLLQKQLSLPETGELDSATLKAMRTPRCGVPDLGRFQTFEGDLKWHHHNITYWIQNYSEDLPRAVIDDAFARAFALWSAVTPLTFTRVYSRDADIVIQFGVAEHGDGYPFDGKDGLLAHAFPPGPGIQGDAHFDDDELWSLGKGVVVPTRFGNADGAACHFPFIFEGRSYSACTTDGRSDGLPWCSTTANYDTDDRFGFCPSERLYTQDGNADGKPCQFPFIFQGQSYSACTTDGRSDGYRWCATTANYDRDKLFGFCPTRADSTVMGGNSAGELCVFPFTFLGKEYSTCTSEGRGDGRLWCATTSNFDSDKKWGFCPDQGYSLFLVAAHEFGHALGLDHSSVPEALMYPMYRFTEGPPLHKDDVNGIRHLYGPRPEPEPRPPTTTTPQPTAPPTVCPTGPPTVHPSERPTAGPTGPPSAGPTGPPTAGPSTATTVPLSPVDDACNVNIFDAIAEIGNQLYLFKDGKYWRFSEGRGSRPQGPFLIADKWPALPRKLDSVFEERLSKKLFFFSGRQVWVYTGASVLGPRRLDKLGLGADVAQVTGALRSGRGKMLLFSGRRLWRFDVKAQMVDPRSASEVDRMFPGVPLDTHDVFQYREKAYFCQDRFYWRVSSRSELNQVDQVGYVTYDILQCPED
T2 sequence (P15144 whole entry): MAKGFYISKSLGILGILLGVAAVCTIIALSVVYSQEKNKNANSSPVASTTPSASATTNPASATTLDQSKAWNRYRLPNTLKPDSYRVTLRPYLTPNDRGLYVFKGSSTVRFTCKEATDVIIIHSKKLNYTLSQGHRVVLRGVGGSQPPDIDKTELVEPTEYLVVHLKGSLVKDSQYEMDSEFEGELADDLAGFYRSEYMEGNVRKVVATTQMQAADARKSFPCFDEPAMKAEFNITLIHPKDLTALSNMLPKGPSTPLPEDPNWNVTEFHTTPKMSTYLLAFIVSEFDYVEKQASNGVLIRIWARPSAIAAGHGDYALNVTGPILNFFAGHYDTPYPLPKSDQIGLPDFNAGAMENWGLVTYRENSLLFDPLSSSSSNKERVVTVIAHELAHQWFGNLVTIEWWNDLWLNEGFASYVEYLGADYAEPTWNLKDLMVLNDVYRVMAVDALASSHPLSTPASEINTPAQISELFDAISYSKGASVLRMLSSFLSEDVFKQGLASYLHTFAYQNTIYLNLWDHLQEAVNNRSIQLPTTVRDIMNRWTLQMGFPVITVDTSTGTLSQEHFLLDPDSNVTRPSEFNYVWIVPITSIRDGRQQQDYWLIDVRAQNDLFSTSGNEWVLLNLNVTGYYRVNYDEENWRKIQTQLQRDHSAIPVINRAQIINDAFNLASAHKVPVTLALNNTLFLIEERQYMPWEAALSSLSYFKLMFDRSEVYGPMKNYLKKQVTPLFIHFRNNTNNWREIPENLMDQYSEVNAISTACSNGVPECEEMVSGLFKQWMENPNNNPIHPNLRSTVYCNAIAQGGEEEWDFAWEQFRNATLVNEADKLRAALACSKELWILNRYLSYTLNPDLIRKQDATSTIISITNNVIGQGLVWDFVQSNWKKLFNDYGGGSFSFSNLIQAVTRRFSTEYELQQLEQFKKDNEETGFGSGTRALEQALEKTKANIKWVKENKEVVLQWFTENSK
72 kDa type IV collagenase, sequence (P08253 whole entry): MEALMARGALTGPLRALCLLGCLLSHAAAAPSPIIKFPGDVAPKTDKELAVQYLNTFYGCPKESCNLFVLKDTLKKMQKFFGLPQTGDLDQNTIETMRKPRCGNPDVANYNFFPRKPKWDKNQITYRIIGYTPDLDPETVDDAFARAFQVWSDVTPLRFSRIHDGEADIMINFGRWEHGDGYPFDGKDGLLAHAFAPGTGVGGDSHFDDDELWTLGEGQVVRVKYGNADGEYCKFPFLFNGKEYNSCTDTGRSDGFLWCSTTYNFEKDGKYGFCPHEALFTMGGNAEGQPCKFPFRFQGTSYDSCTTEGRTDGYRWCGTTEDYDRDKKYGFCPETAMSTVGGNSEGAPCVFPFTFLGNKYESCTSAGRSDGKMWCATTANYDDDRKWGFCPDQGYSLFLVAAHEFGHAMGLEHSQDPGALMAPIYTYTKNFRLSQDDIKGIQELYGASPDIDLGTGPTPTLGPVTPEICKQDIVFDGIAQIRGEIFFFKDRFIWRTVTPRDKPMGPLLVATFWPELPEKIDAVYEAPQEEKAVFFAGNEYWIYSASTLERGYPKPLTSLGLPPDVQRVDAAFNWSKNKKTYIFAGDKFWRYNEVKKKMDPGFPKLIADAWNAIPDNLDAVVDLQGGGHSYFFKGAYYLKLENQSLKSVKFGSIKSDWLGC

Row | Structure (SMILES) | IC50 [1] | IC50 [2] | IC50 (Aminopeptidase N [3]) | IC50 [4] | Ki (Aminopeptidase N [5]) | IC50 [6] | IC50 [7]
1 | O=C(CSc1ccc2ccccc2c1)NO | Not Active | Not Active | 3400 nM | Not Active | 3500 nM |  | 
2 | CNC(=O)[C@H](Cc1ccccc1)NC(=O)[C@H](CC(C)C)[C@H](CSc1cccs1)C(=O)NO [BATIMASTAT] |  |  |  |  |  | 47 nM | 25 nM
